Test results published in publication PMC10931625, “EsigPBP3 Was the Important Pheromone-Binding Protein to Recognize Male Pheromones and Key Eucalyptus Volatiles” (International Journal of Molecular Sciences, 2024).

Biological target: recombinant EsigPBP3
Experiment: fluorescence competitive binding assay (FCBA) with 1-NPN probe
Parameters: species or system Endoclita signifer
Conditions: for IC50: displacement of 1-NPN, 20 mM Tris-HCl pH 7.4, ligands 2-24 µM; for IC50 / Ki: 2 µM EsigPBP3 and 2 µM 1-NPN; for Ki: from IC50 by Ki = [IC50]/(1 + [1-NPN]/K1-NPN)
Experimental: Fluorescence competition assays were conducted using 1-NPN ([…]) as a selective fluorescence probe to measure the affinity of ligands for binding to the recombinant EsigPBP3 [49]. […] The emission wavelength range was set from 380 nm to 520 nm. After the fluorescence intensity stabilized, scans were performed and the emission was recorded (both excitation and emission slit widths were set to 10 nm). A final concentration of 2 μM EsigPBP3 solution was prepared in 20 mM Tris-HCl buffer (pH 7.4), and the ligands were dissolved in chromatographically pure methanol as 1 mM stock solutions. […] The compound was added proportionally to a mixture with a final concentration of 2 µM EsigPBP3 protein and 2 µM 1-NPN. The ability of ligands to bind to the EsigPBP3 protein was monitored by the decrease in fluorescence intensity.

Compound	IC50	Ki (pH 7.4)	Kd (binding curve and Scatchard plot, 2 µM EsigPBP3, 1-NPN 2-24 µM, pH 7.4, read-out: dissociation constant (Kd) of EsigPBP3 for the reporter ligand 1-NPN)
Cc1cc(C)cc(C)c1 [1,3,5-trimethyl-benzen]	> 24 µM	> 16.1 µM	–
c1ccc(Nc2cccc3ccccc23)cc1 [1-NPN, reference compound]	–	–	3.36 µM
CC(C)(O)c1ccccc1 [2-phenyl-2-propanol]	> 24 µM	> 16.1 µM	–
CCc1ccc(C(C)=O)cc1 [4-ethylacetophenone]	8.26 µM	5.55 µM	–
CC12CCC(CC1)C(C)(C)O2 [eucalyptol]	> 24 µM	> 16.1 µM	–

Further lines, with some results ahead:

IC50	Ki (pH 7.4)	Compound	Kd (binding curve and Scatchard plot, 2 µM EsigPBP3, 1-NPN 2-24 µM, pH 7.4, read-out: dissociation constant (Kd) of EsigPBP3 for the reporter ligand 1-NPN)
7.85 µM	5.27 µM	CC1=CCC2CC1C2(C)C (stereo not drawn) [(−)-α-pinene]	–
4.77 µM	3.2 µM	C=C1CCC2CC1C2(C)C (stereo not drawn) [(−)-β-pinene]	–
7.19 µM	4.83 µM	CCc1ccccc1CC [benzene, 1,2-diethyl-]	–
9.85 µM	6.61 µM	C=C1C2CCC(C2)C1(C)C (stereo not shown) [camphene]	–
5.32 µM	3.57 µM	CC1=CC[C@H](C(C)C)C=C1 [α-phellandrene]	–
